Test system: SRS-A
Assay: inhibition of SRS-A induced contraction of guinea pig ileum
Format: cell-based
Conditions: Cavia porcellus, 0.25 h; for inhibition at 5 µM: read-out: […], compound concentration 5 × 10^-6 M, SRS-A agonist 40 μg/ml, read-out: PERCENTAGE ANTAGONISM; for inhibition at 1 µM: read-out: […], compound concentration 1 × 10^-6 M, SRS-A agonist 40 μg/ml, read-out: PERCENTAGE ANTAGONISM
Protocol: The SRS-A antagonist activity of the compounds of this invention is measured by the ability of the active medicament to inhibit SRS-A induced contraction of guinea pig ileum. In this test system, sections of ileum are resected from guinea pigs and placed in 5 ml. tissue baths containing a modified Tyrode's solution. One end of the tissue is fixed to a glass tissue holder, the other is connected to a force-displacement transducer and the tissue is placed under a tension of 500 mg. Isometric tissue contractions are recorded on a six channel polygraph. Baths are constantly aerated with 95% O2 -5% CO2. After a 20 minute stabilization period a concentration of the appropriate agonist which provides a contraction height of 60-80% of the maximum obtainable to that agonist (as determined from full sequential concentration--response curves in separate experiments) is added to the tissue bath and the response recorded. The procedure is repeated until reproducible responses are obtained. For most agonists, two applications in rapid succession, followed 15 minutes later by a third, is sufficient to establish reproducibility. Experimental tissues are incubated with the selected concentration of the test compounds for 15 minutes. Experimental and control tissues are subjected to 5 bath changes during the incubation interval. Changes in bath fluid during the incubation period are helpful in insuring the reproducibility of tissue responses to the agonist. The same concentration of the agonist is reapplied in the presence of the test compound and the response registered and compared with controls. Percent inhibition produced by the test compound is calculated by substracting the mean percentage change in control tissue from the means percentage change in tissues exposed to the test compound. Additional compounds are then evaluated as long as the tissue remains reproducibly responsive to the agonist. Six tissues obtained from 6 animals are used simultaneously--3 controls and 3 experimental.
The compounds of this invention tested at concentrations of from 5×10^-5 M to 1×10^-6 M produce marked antagonism of partially purified slow reacting substance of anaphylaxis obtained from guinea pig lung. The agonist is employed at a concentration of 40 μg/ml. Representative of this effect, tabulated below are a number of the claimed compounds and percentage antagonism of SRS-A at various compound concentrations.

SMILES	inhibition at 5 µM	inhibition at 1 µM
O=S(=O)(Nc1cccc(Cl)c1)c1ccc2c(c1)CN(S(=O)(=O)NS(=O)(=O)N1CCc3ccc(S(=O)(=O)Nc4cccc(Cl)c4)cc3C1)CC2 [Compound 1, N,N'-bis[7-(3-chlorobenzeneaminosulfonyl)-1,2,3,4-tetrahydroisoquinolyl]disulfonylimide]	67.5%	–
O=S(=O)(Nc1ccccc1)c1ccc2c(c1)CN(S(=O)(=O)NS(=O)(=O)N1CCc3ccc(S(=O)(=O)Nc4ccccc4)cc3C1)CC2 [Compound 2]	42.3%	–
O=S(=O)(Nc1ccccc1Cl)c1ccc2c(c1)CN(S(=O)(=O)NS(=O)(=O)N1CCc3ccc(S(=O)(=O)Nc4ccccc4Cl)cc3C1)CC2 [Compound 3]	24.8%	–
O=S(=O)(Nc1ccc(Cl)cc1)c1ccc2c(c1)CN(S(=O)(=O)NS(=O)(=O)N1CCc3ccc(S(=O)(=O)Nc4ccc(Cl)cc4)cc3C1)CC2 [Compound 4]	51.2%	–
O=S(=O)(Nc1cccc(Br)c1)c1ccc2c(c1)CN(S(=O)(=O)NS(=O)(=O)N1CCc3ccc(S(=O)(=O)Nc4cccc(Br)c4)cc3C1)CC2 [Compound 5]	68%	54%
O=S(=O)(Nc1ccc(Br)cc1)c1ccc2c(c1)CN(S(=O)(=O)NS(=O)(=O)N1CCc3ccc(S(=O)(=O)Nc4ccc(Br)cc4)cc3C1)CC2 [Compound 6]	42.2%	–
O=S(=O)(Nc1cccc(C(F)(F)F)c1)c1ccc2c(c1)CN(S(=O)(=O)NS(=O)(=O)N1CCc3ccc(S(=O)(=O)Nc4cccc(C(F)(F)F)c4)cc3C1)CC2 [Compound 7]	65%	–
O=S(=O)(Nc1ccc(C(F)(F)F)cc1)c1ccc2c(c1)CN(S(=O)(=O)NS(=O)(=O)N1CCc3ccc(S(=O)(=O)Nc4ccc(C(F)(F)F)cc4)cc3C1)CC2 [Compound 8]	57%	49%
O=[N+]([O-])c1cccc(NS(=O)(=O)c2ccc3c(c2)CN(S(=O)(=O)NS(=O)(=O)N2CCc4ccc(S(=O)(=O)Nc5cccc([N+](=O)[O-])c5)cc4C2)CC3)c1 [Compound 9]	36%	–
O=S(=O)(Nc1ccc(Cl)c(Cl)c1)c1ccc2c(c1)CN(S(=O)(=O)NS(=O)(=O)N1CCc3ccc(S(=O)(=O)Nc4ccc(Cl)c(Cl)c4)cc3C1)CC2 [Compound 11]	56%	49%
O=S(=O)(Nc1ccc(Cl)c(C(F)(F)F)c1)c1ccc2c(c1)CN(S(=O)(=O)NS(=O)(=O)N1CCc3ccc(S(=O)(=O)Nc4ccc(Cl)c(C(F)(F)F)c4)cc3C1)CC2 [Compound 12]	91.5%	41%
Cc1ccc(NS(=O)(=O)c2ccc3c(c2)CN(S(=O)(=O)NS(=O)(=O)N2CCc4ccc(S(=O)(=O)Nc5ccc(C)c(C)c5)cc4C2)CC3)cc1C [Compound 13]	62%	–
Cc1ccc(NS(=O)(=O)c2ccc3c(c2)CN(S(=O)(=O)NS(=O)(=O)N2CCc4ccc(S(=O)(=O)Nc5ccc(C)c(Cl)c5)cc4C2)CC3)cc1Cl [Compound 14]	84%	–
CN(c1ccc(Cl)cc1)S(=O)(=O)c1ccc2c(c1)CN(S(=O)(=O)NS(=O)(=O)N1CCc3ccc(S(=O)(=O)N(C)c4ccc(Cl)cc4)cc3C1)CC2 [Compound 15]	57.3%	–
O=S(=O)(Nc1cccc(Cl)c1)c1c(Cl)ccc2c1CN(S(=O)(=O)NS(=O)(=O)N1CCc3ccc(Cl)c(S(=O)(=O)Nc4cccc(Cl)c4)c3C1)CC2 [Compound 23, N,N'-Bis[7-Chloro-8-(3-Chlorobenzeneaminosulfonyl)-1,2,3,4-Tetrahydroisoquinolyl]disulfonylimide]	48%	–
O=S(=O)(Nc1cccc(Cl)c1)c1ccc(Cl)c2c1CCN(S(=O)(=O)NS(=O)(=O)N1CCc3c(S(=O)(=O)Nc4cccc(Cl)c4)ccc(Cl)c3C1)C2 [Compound 30, N,N'-bis[8-chloro-5-(3-chlorobenzeneaminosulfonyl)-1,2,3,4-tetrahydroisoquinolyl]disulfonylimide]	63%	–

Reference: patent US4315935A, “N,N'-Bis[substituted-1,2,3,4-tetrahydroisoquinolinolyl]disulfonylimides and antiallergic compositions and method of use” (SmithKline Corporation, priority 1980, dated 1982)
